US20070049564A1 (Wyeth, priority 2005, published 2007)
Read-outs that look alike come from different tables or passages of the source.

What was measured:
E. coli GC 2231 = assay: MIC, broth microdilution; details: Escherichia coli
E. coli GC 2232 = assay: MIC, broth microdilution; details: Escherichia coli
E. coli GC 2272 = assay: MIC, broth microdilution; details: Escherichia coli
E. coli GC 4560 = assay: MIC, broth microdilution; details: Escherichia coli
E. coli GC 6465 = assay: MIC, broth microdilution; details: Escherichia coli
E. coli GC 3226 = assay: MIC, broth microdilution; details: Escherichia coli
Procedure: (§1) Antimicrobial susceptibility testing. The in vitro activities of the antibiotics are determined by the broth microdilution method as recommended by the National Committee for Clinical Laboratory Standards (NCCLS) (1). Mueller-Hinton II broth (MHBII)(BBL Cockeysville, Md.) is the medium employed in the testing procedures. Microtiter plates containing serial dilutions of each antimicrobial agent are inoculated with each organism to yield the appropriate density (10^5 CFU/ml) in a 100 μl final volume. The plates are incubated for 18-22 hours at 35° C. in ambient air.
(§2) Representative compounds were first incubated in mouse serum for an hour prior to the in vitro testing against a panel of selected gram-positive and gram-negative bacteria strains. All compounds were also pre-incubated in water for an hour prior to testing as control. Representative compounds of Formula I were incubated in human serum prior to MIC determination.

E. coli GC 2203 = assay: MIC, broth microdilution; details: Escherichia coli
Procedure: Antimicrobial susceptibility testing. The in vitro activities of the antibiotics are determined by the broth microdilution method as recommended by the National Committee for Clinical Laboratory Standards (NCCLS) (1). Mueller-Hinton II broth (MHBII)(BBL Cockeysville, Md.) is the medium employed in the testing procedures. Microtiter plates containing serial dilutions of each antimicrobial agent are inoculated with each organism to yield the appropriate density (10^5 CFU/ml) in a 100 μl final volume. The plates are incubated for 18-22 hours at 35° C. in ambient air. […] Standard Pharmacological Test Procedures
Presented in Tables I-XIII are representative compounds of Formula I which were evaluated against a panel of 40 selected gram-positive and gram-negative bacteria strains by pre-incubation in water, mouse serum or human serum. Representative compounds were first incubated in mouse serum for an hour prior to the in vitro testing against a panel of selected gram-positive and gram-negative bacteria strains. All compounds were also pre-incubated in water for an hour prior to testing as control. Representative compounds of Formula I were incubated in human serum prior to MIC determination.

S. typhimurium GC 2172 = assay: MIC, broth microdilution; details: Salmonella enterica, TYPHIMURIUM
S. aureus GC 6466 = assay: MIC, broth microdilution; details: Staphylococcus aureus
S. aureus GC 6467 = assay: MIC, broth microdilution; details: Staphylococcus aureus
S. aureus GC 4536 = assay: MIC, broth microdilution; details: Staphylococcus aureus
S. aureus GC 6469 = assay: MIC, broth microdilution; details: Staphylococcus aureus
E. faecalis GC 4555 = assay: MIC, broth microdilution; details: Enterococcus faecalis
E. faecalis GC 2265 = assay: MIC, broth microdilution; details: Enterococcus faecalis
E. faecalis GC 2267 = assay: MIC, broth microdilution; details: Enterococcus faecalis
E. faecium GC 2243 = assay: MIC, broth microdilution; details: Enterococcus faecium
S. pneumoniae* GC 4465 = assay: MIC, broth microdilution; details: Streptococcus pneumoniae
S. agalactiae GC 4564 = assay: MIC, broth microdilution; details: Streptococcus agalactiae
Procedure: as §1, §2

E. coli = assay: Range of MIC for E. coli strains; details: Escherichia coli
Staph. = assay: Range of MIC for Staph. strains, including MRSA; details: Staphylococcus aureus, MRSA
[1] = GC2231, read-out: MINIMAL INHIBITORY CONCENTRATION MIC, pre-incubated in Mouse Serum
[2] = GC2231, read-out: MINIMAL INHIBITORY CONCENTRATION MIC, pre-incubated in Water
[3] = GC2232, read-out: MINIMAL INHIBITORY CONCENTRATION MIC, pre-incubated in Mouse Serum
[4] = GC2232, read-out: MINIMAL INHIBITORY CONCENTRATION MIC, pre-incubated in Water
[5] = GC2272, read-out: MINIMAL INHIBITORY CONCENTRATION MIC, pre-incubated in Mouse Serum
[6] = GC2272, read-out: MINIMAL INHIBITORY CONCENTRATION MIC, pre-incubated in Water
[7] = GC4560, read-out: MINIMAL INHIBITORY CONCENTRATION MIC, pre-incubated in Mouse Serum
[8] = GC4560, read-out: MINIMAL INHIBITORY CONCENTRATION MIC, pre-incubated in Water
[9] = GC6465, read-out: MINIMAL INHIBITORY CONCENTRATION MIC, pre-incubated in Mouse Serum
[10] = GC6465, read-out: MINIMAL INHIBITORY CONCENTRATION MIC, pre-incubated in Water
[11] = GC3226, read-out: MINIMAL INHIBITORY CONCENTRATION MIC, pre-incubated in Mouse Serum
[12] = GC3226, read-out: MINIMAL INHIBITORY CONCENTRATION MIC, pre-incubated in Water
[13] = GC2203, read-out: MINIMAL INHIBITORY CONCENTRATION MIC, pre-incubated in Mouse Serum
[14] = GC2203, read-out: MINIMAL INHIBITORY CONCENTRATION MIC, pre-incubated in Water
[15] = read-out: MINIMAL INHIBITORY CONCENTRATION MIC, pre-incubated in Mouse Serum
[16] = read-out: MINIMAL INHIBITORY CONCENTRATION MIC, pre-incubated in Water
[17] = GC6466, read-out: MINIMAL INHIBITORY CONCENTRATION MIC, pre-incubated in Mouse Serum
[18] = GC6466, read-out: MINIMAL INHIBITORY CONCENTRATION MIC, pre-incubated in Water
[19] = GC6467, read-out: MINIMAL INHIBITORY CONCENTRATION MIC, pre-incubated in Mouse Serum
[20] = GC6467, read-out: MINIMAL INHIBITORY CONCENTRATION MIC, pre-incubated in Water
[21] = GC4536, read-out: MINIMAL INHIBITORY CONCENTRATION MIC, pre-incubated in Mouse Serum
[22] = GC4536, read-out: MINIMAL INHIBITORY CONCENTRATION MIC, pre-incubated in Water
[23] = GC6469, read-out: MINIMAL INHIBITORY CONCENTRATION MIC, pre-incubated in Mouse Serum
[24] = GC6469, read-out: MINIMAL INHIBITORY CONCENTRATION MIC, pre-incubated in Water
[25] = GC4555, read-out: MINIMAL INHIBITORY CONCENTRATION MIC, pre-incubated in Mouse Serum
[26] = GC4555, read-out: MINIMAL INHIBITORY CONCENTRATION MIC, pre-incubated in Water
[27] = GC2265, read-out: MINIMAL INHIBITORY CONCENTRATION MIC, pre-incubated in Mouse Serum
[28] = GC2265, read-out: MINIMAL INHIBITORY CONCENTRATION MIC, pre-incubated in Water
[29] = GC2267, read-out: MINIMAL INHIBITORY CONCENTRATION MIC, pre-incubated in Mouse Serum
[30] = GC2267, read-out: MINIMAL INHIBITORY CONCENTRATION MIC, pre-incubated in Water
[31] = GC2243, read-out: MINIMAL INHIBITORY CONCENTRATION MIC, pre-incubated in Mouse Serum
[32] = GC2243, read-out: MINIMAL INHIBITORY CONCENTRATION MIC, pre-incubated in Water
[33] = GC4564, read-out: MINIMAL INHIBITORY CONCENTRATION MIC, pre-incubated in Mouse Serum
[34] = GC4564, read-out: MINIMAL INHIBITORY CONCENTRATION MIC, pre-incubated in Water
[35] = 20 h, read-out: Range of MIC, E. coli (Mouse Serum)
[36] = read-out: Range of MIC, E. coli (Water)
[37] = read-out: Range of MIC, Staph (Mouse Serum)

Measured: MIC

CCCN(CC(=O)Nc1cc(N(C)C)c2c(c1O)C(=O)C1=C(O)[C@]3(O)C(=O)C(C(N)=O)=C(O)[C@@H](N(C)C)[C@@H]3C[C@@H]1C2)C(=O)OCOC(=O)c1ccc(C(C)(C)C)cc1 [Example 28, ({[(2-{[(5aR,6aS,7S,10aS)-9-(aminocarbonyl)-4,7-bis(dimethylamino)-1,8,10a,11-tetrahydroxy-10,12-dioxo-5,5a,6,6a,7,10,10a,12-octahydrotetracen-2-yl]amino}-2-oxoethyl)(propyl)amino]carbonyl}oxy)methyl 4-tert-butylbenzoate]
> 64 µg/mL: E. coli GC 2231; [2] | E. coli GC 2232; [4] | E. coli GC 2272; [6] | E. coli GC 4560; [8] | E. coli GC 6465; [10] | E. coli GC 3226; [12] | E. coli GC 2203; [14] | S. typhimurium GC 2172; [16] | E. coli; [36] | E. coli; read-out: Range of MIC, E. coli (water)
< 0.06 µg/mL: S. pneumoniae* GC 4465; [15] | S. pneumoniae* GC 4465; [16]
32 µg/mL: S. aureus GC 4536; [22]
64 µg/mL: S. aureus GC 6467; [20] | S. aureus GC 6469; [24] | E. faecalis GC 4555; [26] | E. faecalis GC 2265; [28] | E. faecalis GC 2267; [30]
1 µg/mL: E. coli GC 2231; [1]
4 to 64 µg/mL: Staph.; read-out: Range of MIC, Staph (Water) | Staph.; read-out: Range of MIC, Staph. (water)
0.5 µg/mL: E. coli GC 2232; [3] | E. coli GC 2272; [5] | E. coli GC 3226; [11] | E. coli GC 2203; [13] | S. aureus GC 6466; [17] | S. aureus GC 4536; [21] | S. agalactiae GC 4564; [34]
2 µg/mL: E. faecalis GC 2265; [27] | E. faecalis GC 2267; [29]
0.5 to 4 µg/mL: Staph.; [37] | Staph.; read-out: Range of MIC, Staph. (mouse serum)
0.25 to 1 µg/mL: E. coli; [35] | E. coli; read-out: Range of MIC, E. coli (mouse serum)
8 µg/mL: E. coli GC 6465; [9] | S. typhimurium GC 2172; [15]
0.25 µg/mL: E. coli GC 4560; [7] | E. faecalis GC 4555; [25] | E. faecium GC 2243; [31] | E. faecium GC 2243; [32] | S. agalactiae GC 4564; [33]
4 µg/mL: S. aureus GC 6466; [18] | S. aureus GC 6467; [19] | S. aureus GC 6469; [23]

CCCCN(CC(=O)Nc1cc(N(C)C)c2c(c1O)C(=O)C1=C(O)[C@]3(O)C(=O)C(C(N)=O)=C(O)[C@@H](N(C)C)[C@@H]3C[C@@H]1C2)C(=O)OCOC(=O)c1ccc(-c2ccccc2)cc1 [Example 21, ({[(2-{[(5aR,6aS,7S,10aS)-9-(aminocarbonyl)-4,7-bis(dimethylamino)-1,8,10a,11-tetrahydroxy-10,12-dioxo-5,5a,6,6a,7,10,10a,12-octahydrotetracen-2-yl]amino}-2-oxoethyl)(butyl)amino]carbonyl}oxy)methyl 1,1′-biphenyl-4-carboxylate]
0.25 µg/mL: E. coli GC 4560; [7] | S. pneumoniae* GC 4465; [15]
0.5 µg/mL: E. coli GC 2203; [13] | E. faecium GC 2243; [31] | S. pneumoniae* GC 4465; [16] | S. agalactiae GC 4564; [33]
0.5 to 8 µg/mL: E. coli; [35] | E. coli; read-out: Minimum inhibitory concentration (MIC), E. coli (mouse serum)
> 64 µg/mL: E. coli GC 2231; [2] | E. coli GC 2232; [4] | E. coli GC 2272; [6] | E. coli GC 4560; [8] | E. coli GC 6465; [10] | E. coli GC 3226; [12] | E. coli GC 2203; [14] | S. typhimurium GC 2172; [16] | S. aureus GC 6467; [20] | S. aureus GC 6469; [24] | E. coli; read-out: Minimum inhibitory concentration (MIC), E. coli (water) | E. coli; [36]
2 µg/mL: S. aureus GC 4536; [21] | E. faecalis GC 2267; [29]
64 µg/mL: S. aureus GC 6466; [18] | E. faecalis GC 4555; [26] | E. faecalis GC 2265; [28] | E. faecalis GC 2267; [30]
32 µg/mL: S. aureus GC 4536; [22]
1 to 4 µg/mL: Staph.; read-out: Minimum inhibitory concentration (MIC), Staph. (mouse serum) | Staph.; [37]
8 µg/mL: E. coli GC 3226; [11] | E. faecium GC 2243; [32] | S. agalactiae GC 4564; [34]
4 µg/mL: E. coli GC 6465; [9] | S. typhimurium GC 2172; [15] | S. aureus GC 6467; [19] | S. aureus GC 6469; [23]
1 µg/mL: E. coli GC 2231; [1] | E. coli GC 2232; [3] | E. coli GC 2272; [5] | S. aureus GC 6466; [17] | E. faecalis GC 4555; [25] | E. faecalis GC 2265; [27]
